Measurements: patent US8258119B2, “Anti-cancer drugs and uses relating thereto for metastatic malignant melanoma and other cancers” (Kasina Laila Innova Pharmaceuticals, priority 2008, dated 2012)
Values after ≈ are worked out from the molar mass of the structure shown.

Columns and labels:
Type in all cases: cell-based
[1] = system: DU145 human prostate tumor cells; test: MTT cell proliferation assay in DU145 cells; settings: DU-145, read-out: 50% of inhibitory concentration, IC50 DU145
Description: (§1) MTT [3-(4,5-dimethylthiazol-2-yl)-2,5-diphenyltetrazolium bromide] incorporation based cell proliferation assay was performed using standard procedure with some modifications (38). The cytotoxic efficacy of the test compounds were evaluated in human malignant melanoma A2058 cells by MTT cell proliferation assay kit (Roche Applied Sciences, Germany). The assay was carried out according to the instruction provided by the vendor. Briefly, equal numbers of cells was plated in 96-well flat-bottomed plates in 100 μl of medium and were exposed to either DTIC or its derivative compounds at various concentrations up to 150 μg/ml for a period of three days. Vehicle control culture wells received only a maximum of 0.5% DMSO. Thereafter, 0.5 mg/ml of MTT reagent was added to each well and the microplate was incubated further for 4 h at 37° C. in presence of 5% CO2. Finally, the cells were solubilized by adding solubilizing solution and allowed to incubate at 37° C. overnight. After complete solubilization of the formazan crystals the absorbance was read at 540 nm in a microplate reader (BioRad, USA). The results (mean OD±SD) obtained from quadruplicate wells were used in calculation to determine the inhibition of cell proliferation (50% inhibitory concentration, IC50) of the test compounds.
(§2) Anti-tumor growth potential of Compound 1 and Compound 6 were evaluated in MCF-7 human breast tumor cells, MIA-PaCa2 human pancreas tumor cells and DU145 human prostate tumor cells by using MTT based cell proliferation studies as described earlier (example 19). The results (mean OD±SD) obtained from quadruplicate wells were used in calculation to determine the inhibition of cell proliferation (50% of inhibitory concentration, IC50) of the test compounds (Table 4).

[2] = system: MCF-7 human breast tumor cells; test: MTT cell proliferation assay in MCF-7 cells; settings: MCF7, read-out: 50% of inhibitory concentration, IC50 MCF-7
Description: as §1, §2

[3] = system: A2058, human malignant melanoma cells; test: MTT cell proliferation assay in A2058 cells; settings: A2058, 72 h, three days exposure
Description: as §1

[4] = system: B16F0 mouse melanoma cells; test: LDH leakage cytotoxicity assay in B16F0 cells; settings: treatment concentration 100 μg/ml
Description: (§3) From the data obtained from the MTT assay (Table J), compound 1, compound 6 and compound 13 have been selected and their cytotoxicity potential has been further validated in LDH leakage assay. […] Cytotoxicity potential of DTIC and its derivative compounds were evaluated by measuring the leaked lactate dehydrogenase (LDH) into the culture supernatant (LDH Cytotoxicity Detection Roche Applied Sciences, Germany). The leaked LDH is directly proportional to the cell damage done by the cytotoxic compounds. In brief, cells were treated with test compounds at various concentrations and incubated for 48 h. Vehicle control culture wells received only a maximum of 0.5% DMSO. The cell free culture supernatants were mixed with catalyst and dye solution and allowed to incubate for 15 min at room temperature. Finally, the reaction was stopped and the optical density was measured at 492 nm in a microplate reader (BioRad, USA). […]
(§4) Comparative cytotoxicity potential of DTIC and Compound 6 on B16F0 mouse melanoma cells and A375 human melanoma cells were further evaluated by measuring the leaked lactate dehydrogenase (LDH) into the culture supernatant (LDH Cytotoxicity Detection Kit^Plus, Roche Applied Sciences, Germany), following the methodology described earlier (Example 20). […]

B16F0 cells = test: B16 F0 mouse melanoma cell colony formation assay; settings: B16F0, 192 h, 8 days, read-out: B16 colony growth inhibition; for inhibition at 100 µg/mL: 100 μg/ml
Description: Clone formation efficiency of the Compound 6 and DTIC was tested by following the procedure described earlier with some modifications (41). Briefly, B16F0 cells were harvested and seeded into 6-well plates (100 cells/ml). The cells were allowed to grow for 2 days and thereafter, the cells were incubated with DMEM containing either 0.1% DMSO or 100 μg/ml DTIC or 50 μg/ml and 100 μg/ml of Compound 6 for further 8 days. Fresh medium containing test agents was replaced at every 24 h. Finally, the wells were washed three times with PBS and fixed in methanol for 15 min. The cells were stained with Giemsa stain and observed under microscope. The image of the stained wells were captured digitally (Kodak Image Station 4000MM, Carestream Health Inc., New Haven, Conn.) and number of colonies were counted and analyzed by using NIH Image J software.

[5] = system: A375 human melanoma cells; test: LDH leakage cytotoxicity assay in A375 cells; settings: treatment concentration 100 μg/ml
Description: as §3, §4

[6] = system: B16F0 mouse melanoma cells; test: MTT cell proliferation assay in B16F0 cells; settings: B16F0, 72 h, 3 days, read-out: 50% of inhibitory concentration, IC50 in B16 F0 cells
Description: as §1, with “Thereafter, 0.5 mg/ml of MTT reagent was added to each well and the microplate was incubated further for 4 h at 37° C. in presence of 5% CO2. Finally, the cells were solubilized by adding solubilizing solution and allowed to incubate at 37° C. overnight.” left out, “The results (mean OD±SD) obtained from quadruplicate wells were used in calculation to determine the inhibition of cell proliferation (50% inhibitory concentration, IC50) of the test compounds.” left out
The comparative anti-tumor growth potential of DTIC and Compound 6 was further tested in B16F0 mouse melanoma cells and A375 human melanoma cells by using MTT based cell proliferation assay following the methodology described earlier (Example 19). […] After adding the MTT reagent, the cells were solubilized and the intracellular formazan formation was calorimetrically read at 540 nm in a microplate reader (BioRad, USA). […]

[7] = system: Human umbilical vein endothelial cells (HUVEC); test: In vitro capillary formation assay; settings: HUVEC on Cultrex, 16 hours
Description: In vitro capillary formation assay was performed with Human umbilical vein endothelial cells (HUVEC), cultured on 10 mg/ml basement membrane extract (BME-Cultrex®, R&D Systems, USA) bed. The protocol of in vitro endothelial tube formation assay was the same as described earlier with some modifications (44). Briefly, four hundred microliters of Cultrex was coated at 4° C. in each well of 24-well culture plate and allowed to gel at 37° C. for 1 h. HUVECs were plated at a density of 7.5×10^4 cells per well with […] of DMEM supplemented with 10% fetal bovine serum and 4.5 g/l D-glucose. The cells were then treated with either DTIC or Compound 6 at desired concentration as indicated for 16 hours. Vehicle control cultures received only 0.1% DMSO. Pictures were taken under a Nikon Eclipse TS 100 microscope equipped with a Nikon Coolpix camera.

[8] = system: MIA-PaCa2 human pancreas tumor cells; test: MTT cell proliferation assay in MIA-PaCa2 cells; settings: MIA PaCa-2, read-out: 50% of inhibitory concentration, IC50 MIA-PaCa2
Description: as §1, §2

Row | IC50 [1] | IC50 [2] | IC50 [3] | IC50 [6] | IC50 [8] | Compound | % increase in LDH secretion with respect to vehicle treated control in B16 F0 cells [4] | inhibition at 50 µg/mL (B16F0 cells; 50 μg/ml) | inhibition at 100 µg/mL (B16F0 cells) | % increase in LDH secretion with respect to vehicle treated control in A375 cells [5] | capillary formation [7]
1 | 62.6 µg/mL (≈ 314 µM) | 91.7 µg/mL (≈ 460 µM) | 53.6 µg/mL (≈ 269 µM) | 57.6 µg/mL (≈ 289 µM) | 81.9 µg/mL (≈ 411 µM) | CN(C)/N=N/c1ccsc1C(=O)O [Compound 6, 3-[(dimethylamino)diazenyl]thiophene-2-carboxylic acid] | 61.5% | 55.2% | 68.7% | 331% | inhibition of capillary formation in a dose dependent manner
2 | 87.2 µg/mL (≈ 479 µM) | 135 µg/mL (≈ 742 µM) | 68.1 µg/mL (≈ 374 µM) | 360 µg/mL (≈ 1980 µM) | 203 µg/mL (≈ 1110 µM) | CN(C)/N=N/c1[nH]cnc1C(N)=O [DTIC, 5-(3,3-dimethyl-1-trizeno)-imidazole-4-carboxamide, reference compound] | 5.7% | – | 37.6% | 246% | promoted capillary formation
